# Several values for one entry are separate records, joined by “and”; a condition that tells them apart may be missing. Equal entries are not always repeated. Where two headings read alike, the source gives them in different places.
# Legend:
# hamsters = assay: Antifertility in hamsters (termination of pregnancy, subcutaneous); assay type: in vivo, hamster; conditions: Mesocricetus auratus, sc
# Description: On the 4th day of pregnancy, hamsters were each injected subcutaneously with an aqueous solution of a compound of formula I (prepared by dissolving the compound in a minimum volume of ethanol and diluting to the appropriate volume with 0.9% w/v saline). On the 7th day of pregnancy the hamsters were killed and their uteri were examined.
# Alternatively, the hamsters were dosed on 3 consecutive days (the 3rd, 4th and 5th days of pregnancy) and killed on the 12th day of pregnancy.
# The dose required for termination of pregnancy in 50% of the hamsters (ED50) was calculated mathematically.
# [1] = test system: uterine contraction in rats; assay: Stimulation of uterine contraction in rats compared with PGE1; assay type: in vivo, rat; conditions: for Activity (compared with PGE1): intravenous, ratio to PGE1
# Description: Pregnant anaesthetised rats were treated with the compounds of the invention by the intravenous or intravaginal route and the activity of each compound in stimulating uterine contraction was compared with that of a standard compound, the expensive prostaglandin E1 (PGE1), and expressed as a ratio.
# female rats = conditions: rat, in vivo, po, 1 mg/kg
# Description: (§1) In tests, four female rats and one female dog were each dosed orally with compound A at a rate of 1.0 mg/kg animal body weight. Before administration to the animals the compound was dissolved in a minimum quantity of a 1% w/w solution of Tween 80 emulsifier ("Tween" is a registered Trade Mark) in ethanol, and the resulting solution was diluted with distilled water to a concentration of 0.02% w/w.
# female dog = conditions: in vivo, po, 1 mg/kg
# Description: as §1
# [2] = test system: Lucilia sericata prepupae; assay: Lucilia pupae, topical treatment of prepupae; assay type: in vivo
# Description: Lucilia sericata prepupae (taken from a batch of the insects of which approximately 50% were pupated) in groups of 10 were each treated topically with 1 μl of a solution of a test compound in acetone. Controls were treated with acetone alone. The insects were stored in the dark at 30° C. for 8 days, and then the number of insects which had hatched as normal adult flies, and any other effects, were observed.
# [3] = test system: ticks (Ornithodoros moubata Murray); assay: Ticks, first instar, fed on blood containing test compound; assay type: in vivo; conditions: 5.0 μg per 0.3 ml blood, 14 days at 30° C.
# Description: First instar ticks (Ornithodoros moubata Murray) were allowed to engorge through a stretched artificial membrane (Parafilm M) on blood at 37° C. and containing a test compound added in a suitable solvent at a rate of 5.0 μg per 0.3 ml blood. Mortality and moulting were observed after 14 days holding at 30° C.
# [4] = test system: houseflies (Musca domestica L.); assay: Houseflies, injection in dorsal thorax, mortality and egg hatch; assay type: in vivo; conditions: for % egg hatch: 48 hours; for % mortality: 24 hours, 1440 min
# Description: Adult houseflies (Musca domestica L.) of mixed sex were injected in the dorsal thorax with 1.0 μl of a solution of a test compound in a mixture of acetone and physiological saline (1:1 v/v). Anaesthesia with carbon dioxide was used, and subsequent holding was at 25° C. A source of honey-water was provided. Fly mortality and oviposition were recorded after 24 hours and egg hatching after 48 hours. Similar, control, experiments were carried out using a mixture of acetone and physiological saline alone.
# [5] = test system: mosquito larvae (Aedes aegypti L.); assay: Mosquito larvae in water containing test compound; assay type: in vivo; conditions: 25° C.
# Description: Mosquito larvae (Aedes aegypti L.), at the late third or early fourth instar stage, were introduced into water containing a small concentration of a test compound, at 25° C. The water also contained 0.4% v/v acetone which had been employed as the vehicle for the introduction of the test compound. The larvae were fed with dried powdered bovine liver after 2 hours. After 24 hours at 25° C. a mortality count was made, and subsequent metamorphosis and emergence as adults were observed after seven days at 25° C., and compared with controls.
# [6] = 288 h, dosed 3rd, 4th and 5th days of pregnancy, examined day 12, read-out: ED50 (dose required for termination of pregnancy in 50% of the hamsters)
# [7] = 168 h, dosed 4th day of pregnancy, examined day 7, read-out: ED50 (dose required for termination of pregnancy in 50% of the hamsters)
# [8] = Musca domestica, 24 h, 0.5 μg/fly
# [9] = Musca domestica, 24 h, 0.25 μg/fly
# [10] = test 1, 1.0 μg/prepupa, 8 days at 30° C., control 10
Compound,Activity (compared with PGE1) [1],% mortality [3] [%],% moulting normally [3] [%],% egg hatch ([4]; 0.5 μg/fly),"mortality at 0.5 µg/fly [4, 8] [%]",other results
"C[C@@H](C/C=C/C(=O)COc1ccccc1)CCCC(C)(C)O [A, (R)-2-hydroxy-2,6-dimethyl-11-phenoxyundec-8-trans-en-10-one]",3.7,–,–,–,–,"ED50 (hamsters; [6]): ~2 mg/kg; times as active as PGE1 ([1]; pervaginal): over 100 times; weight loss (female rats): no weight loss; weight loss (female dog): no weight loss; Number hatched (out of 10) ([2]; test 3, 1.0 μg/prepupa, control 9): 2 out of 10"
"C[C@@H](C/C=C/C(=O)COc1ccccc1Cl)CCCC(C)(C)O [B, (R)-11-(2-chlorophenoxy)-2-hydroxy-2,6-dimethylundec-8-trans-en-10-one]",1.2,–,–,–,–,–
"C[C@@H](C/C=C/C(=O)COc1ccc(Cl)cc1)CCCC(C)(C)O [C, (R)-11-(4-chlorophenoxy)-2-hydroxy-2,6-dimethylundec-8-trans-en-10-one]",0.32,–,–,–,–,–
"CCCCC(C)(C)C(O)/C=C/C[C@H](C)CCCC(C)(C)O (stereo partly drawn) [Compound T, (6R,10RS)-2,6,11,11-tetramethylpentadec-8-trans-ene-2,10-diol]",–,–,–,–,–,ED50 (hamsters; [7]): 2 mg/kg
"C[C@@H](C/C=C/C(=O)CCCc1ccccc1)CCCC(C)(C)O [F, (R)-2-hydroxy-2,6-dimethyl-13-phenyltridec-8-trans-en-10-one]",0.91,–,–,–,–,–
"C[C@@H](C/C=C/C(=O)CCc1ccccc1)CCCC(C)(C)O [G, (R)-2-hydroxy-2,6-dimethyl-12-phenyldodec-8-trans-en-10-one]",0.67,0,0,no eggs,60,"ED50 (hamsters; [7]): 5 mg/kg; ED50 (hamsters; [6]): 4 mg/kg; % egg hatch ([4]; 0.1 μg/fly): 100%; mortality at 0.1 µg/fly ([4]; Musca domestica, 24 h, 0.1 μg/fly): 60%"
"C[C@@H](C/C=C/C(=O)Cc1ccccc1)CCCC(C)(C)O [I, (R)-2-hydroxy-2,6-dimethyl-11-phenylundec-8-trans-en-10-one]",0.09,–,–,–,–,–
"CCCCCC(=O)/C=C/C[C@H](C)CCCC(C)(C)O [J, (R)-2-hydroxy-2,6-dimethylpentadec-8-trans-en-10-one]",0.02,–,–,–,–,–
"CCCCC(C)(C)C(=O)/C=C/C[C@H](C)CCCC(C)(C)O [K, (R)-2-hydroxy-2,6,11,11-tetramethylpentadec-8-trans-en-10-one]",0.57,–,–,–,–,ED50 (hamsters; [6]): < 0.5 mg/kg
"C[C@@H](C/C=C/C(=O)CCc1ccc(Cl)cc1)CCCC(C)(C)O [L, (R)-12-(4-chlorophenyl)-2-hydroxy-2,6-dimethyldodec-8-trans-en-10-one]",–,0,0,no eggs,80,–
"C[C@@H](C/C=C/C(=O)CCc1cccc(Cl)c1)CCCC(C)(C)O [M, (R)-12-(3-chlorophenyl)-2-hydroxy-2,6-dimethyldodec-8-trans-en-10-one]",–,0,0,0%,–,"% egg hatch ([4]; 0.25 μg/fly): 100%; % mortality ([4]; 0.5 μg/fly): 80% and 40%; mortality at 0.25 µg/fly [4, 9]: 30%"
"C[C@@H](C/C=C/C(=O)CCc1ccccc1Cl)CCCC(C)(C)O [N, (R)-12-(2-chlorophenyl)-2-hydroxy-2,6-dimethyldodec-8-trans-en-10-one]",–,0,0,100%,50,"% egg hatch ([4]; 0.25 μg/fly): 100%; % mortality ([4]; 0.5 μg/fly): 60%; mortality at 0.25 µg/fly [4, 9]: 40%"
"C[C@@H](C/C=C/C(=O)COc1cccc(Cl)c1)CCCC(C)(C)O [O, (R)-11-(3-chlorophenoxy)-2-hydroxy-2,6-dimethylundec-8-trans-en-10-one]",0.91,–,–,–,–,–
"C[C@@H](C/C=C/C(O)COc1ccccc1)CCCC(C)(C)O (stereo partly drawn) [P, (6R,10RS)-2,6-dimethyl-11-phenoxyundec-8-trans-ene-2,10-diol]",0.14,0,0,no eggs,50,"Number hatched (out of 10) [2, 10]: 1 out of 10"
"CCCCCC(O)/C=C/C[C@H](C)CCCC(C)(C)O (stereo partly drawn) [Q, (6R,10RS)-2,6-dimethylpentadec-8-trans-ene-2,10-diol]",0.05,0,0,no eggs,70,"ED50 (hamsters; [6]): 2 mg/kg; Number hatched (out of 10) [2, 10]: 0 out of 10; Number hatched (out of 10) ([2]; test 2, 0.2 μg/prepupa, control 7): 6 out of 10; Number hatched (out of 10) ([2]; test 2, 0.4 μg/prepupa, control 7): 5 out of 10; Number hatched (out of 10) ([2]; test 2, 0.6 μg/prepupa, control 7): 1 out of 10; Number hatched (out of 10) ([2]; test 2, 0.8 μg/prepupa, control 7): 0 out of 10; Number hatched (out of 10) ([2]; test 2, 1.0 μg/prepupa, 8 days at 30° C., control 7): 2 out of 10"
"C[C@@H](C/C=C/C(O)CCc1ccccc1)CCCC(C)(C)O (stereo partly drawn) [R, (6R,10RS)-2,6-dimethyl-12-phenyldodec-8-trans-ene-2,10-diol]",0.14,0,0,–,–,"larvae killed within 24 hours ([5]; 0.08 parts per million w/v): all; mortality at 0.04 µg/mL ([5]; Aedes aegypti, 24 h, 0.04 parts per million, read-out: larvae killed within 24 hours): ~50%; ED50 (hamsters; [6]): 0.5 mg/kg; % egg hatch ([4]; 0.25 μg/fly): 100%; mortality at 0.25 µg/fly [4, 9]: 40%"
"C[C@@H](C/C=C/C(O)CCCc1ccccc1)CCCC(C)(C)O (stereo partly drawn) [S, (6R,10RS)-2,6-dimethyl-13-phenyltridec-8-trans-ene-2,10-diol]",–,29,17,–,30,"% egg hatch ([4]; 0.25 μg/fly): 100%; % mortality ([4]; 0.5 μg/fly): 40%; mortality at 0.25 µg/fly [4, 9]: 20%"

# — US4243683A, “Tertiary alcohols” (May & Baker Limited, priority 1977, dated 1981)
